Assay results reported in patent publication US9655887B2, “Pharmaceutical composition and the use thereof, and application regime of said pharmaceutical composition for on-demand contraception” (BAYER PHARMA AKTIENGESELLSCHAFT, priority 2013, dated 2017).

Target: EP2 subtype of the human PGE2 receptor (hEP2 receptor) (Homo sapiens, UniProt P43116)
Experiment: cAMP antagonism test, human prostaglandin E2 (subtype EP2) receptor signal
Type: cell-based
From the text: 1. Detection of Antagonism to the Human Prostaglandin E2 (Subtype EP2) Receptor Signal
The binding of PGE2 to the EP2 subtype of the human PGE2 receptor induces the activation of membrane-located adenylate cyclases and leads to the formation of cAMP. In the presence of the phosphodiesterase inhibitor IBMX, the cAMP accumulated owing to this stimulation and released by cell lysis is used in a competitive detection method. In this test, the cAMP present in the lysate competes with a fluorescence-labelled cAMP (cAMP-d2) for binding to an Eu cryptate-labelled anti-cAMP antibody.
In the absence of cellular cAMP, a maximal signal is produced, which is attributable to the binding of this cAMP-d2 molecule to the antibody. After excitation of the […] at 337 nm, there is a fluorescence resonance energy transfer (FRET) to the Eu cryptate molecules of the anti-cAMP antibody (labelled therewith), followed by a long-lasting emission signal at 665 nm (and at […]). Both signals are measured in a suitable measurement instrument with a time delay, i.e. after decay of the background fluorescence. Any increase in the low FRET signal caused by prostaglandin E2 administration (measured as well ratio change=emission665nm/emission620nm*10000) indicates the action of antagonists.
1.2.1. Test for Antagonism (Data Per Well of a 384-Well Plate):
To a test plate with the substance solutions already added (0.05 μl; 100% DMSO, concentration range from 0.8 nM-16.5 nM) were added 4 μl of a cAMP-d2/cell suspension (625000 cells/ml). After a 20-minute preincubation at room temperature (RT), 2 μl of a 3×PGE2 solution (1.5 nM, in PBS-IBMX) were added and incubated in the presence of the agonist for a further 60 mins at RT (volume: […]). Next the reaction was stopped by addition of 2 μl of lysis buffer and incubated for a further 20 mins at RT before the actual measurement (volume: ˜8 μl).

Sequence of EP2 subtype of the human PGE2 receptor (hEP2 receptor) (P43116 whole entry): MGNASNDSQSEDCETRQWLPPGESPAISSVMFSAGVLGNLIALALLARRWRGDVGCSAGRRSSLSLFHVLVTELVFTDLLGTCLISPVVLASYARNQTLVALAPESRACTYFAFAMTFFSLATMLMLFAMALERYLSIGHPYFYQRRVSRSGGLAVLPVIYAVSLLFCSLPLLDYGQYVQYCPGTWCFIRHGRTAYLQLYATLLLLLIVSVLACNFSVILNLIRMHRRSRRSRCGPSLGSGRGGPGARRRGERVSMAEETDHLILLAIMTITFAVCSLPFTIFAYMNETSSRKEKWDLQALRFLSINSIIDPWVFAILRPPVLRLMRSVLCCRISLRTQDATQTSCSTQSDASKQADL

Compound | IC50
COCCNC(=O)c1ccc2nn(CC3CCN(C(=O)c4ccc(OC(C)(C)C)cc4)CC3)cc2c1C [Example E2, 2-{[1-(4-tert-butoxybenzoyl)piperidin-4-yl]methyl}-N-(2-methoxyethyl)-4-methyl-2H-indazole-5-carboxamide] | > 50 nM
COCCNC(=O)c1ccc2nn(CC3CCN(C(=O)c4ccc(Oc5ccc(Cl)cc5)cc4)CC3)cc2c1C [Example E13, 2-({1-[4-(4-chlorophenoxy)benzoyl]piperidin-4-yl}methyl)-N-(2-methoxyethyl)-4-methyl-2H-indazole-5-carboxamide] | > 50 nM
COCCNC(=O)c1ccc2nn(CC3CCN(C(=O)c4ccc(Oc5ccc(C)cc5)cc4)CC3)cc2c1C [Example E14, N-(2-methoxyethyl)-4-methyl-2-({1-[4-(4-methylphenoxy)benzoyl]piperidin-4-yl}-methyl)-2H-indazole-5-carboxamide] | > 50 nM
COCCNC(=O)c1ccc2nn(CC3CCN(C(=O)c4ccc(Oc5ccc(C(C)(C)C)cc5)cc4)CC3)cc2c1C [Example E15, 2-({1-[4-(4-tert-butylphenoxy)benzoyl]piperidin-4-yl}methyl)-N-(2-methoxyethyl)-4-methyl-2H-indazole-5-carboxamide] | > 50 nM
COCCNC(=O)c1ccc2nn(CC3CCN(C(=O)c4ccc(Oc5ccc(OC)cc5)cc4)CC3)cc2c1C [Example E17, N-(2-methoxyethyl)-2-({1-[4-(4-methoxyphenoxy)benzoyl]piperidin-4-yl}methyl)-4-methyl-2H-indazole-5-carboxamide] | > 50 nM
COCCNC(=O)c1ccc2nn(CC3CCN(C(=O)c4ccc(Oc5ccccc5)cc4)CC3)cc2c1C [Example E18, N-(2-methoxyethyl)-4-methyl-2-{[1-(4-phenoxybenzoyl)piperidin-4-yl]methyl}-2H-indazole-5-carboxamide] | > 50 nM
COCCNC(=O)c1ccc2nn(CC3CCN(C(=O)c4ccc(C5CC5)cc4)CC3)cc2c1C [Example E19, 2-{[1-(4-cyclopropylbenzoyl)piperidin-4-yl]methyl}-N-(2-methoxyethyl)-4-methyl-2H-indazole-5-carboxamide] | > 50 nM
COCCNC(=O)c1ccc2nn(CC3CCN(C(=O)c4ccc(OC)cc4)CC3)cc2c1C [Example E20, 2-{[1-(4-methoxybenzoyl)piperidin-4-yl]methyl}-N-(2-methoxyethyl)-4-methyl-2H-indazole-5-carboxamide] | > 50 nM
COCCNC(=O)c1ccc2nn(CC3CCN(C(=O)c4ccc(F)cc4)CC3)cc2c1C [Example E21, 2-{[1-(4-fluorobenzoyl)piperidin-4-yl]methyl}-N-(2-methoxyethyl)-4-methyl-2H-indazole-5-carboxamide] | > 50 nM
COCCNC(=O)c1ccc2nn(CC3CCN(C(=O)c4ccc(C(F)(F)F)cc4)CC3)cc2c1C [Example E22, N-(2-methoxyethyl)-4-methyl-2-({1-[4-(trifluoromethyl)benzoyl]piperidin-4-yl}-methyl)-2H-indazole-5-carboxamide] | > 50 nM
COCCNC(=O)c1ccc2nn(CC3CCN(C(=O)c4ccc(S(=O)(=O)C(F)(F)F)cc4)CC3)cc2c1C [Example E24, N-(2-methoxyethyl)-4-methyl-2-[(1-{4-[(trifluoromethyl)sulphonyl]benzoyl}piperidin-4-yl)methyl]-2H-indazole-5-carboxamide] | > 50 nM
COCCNC(=O)c1ccc2nn(CC3CCN(C(=O)c4cccc(C(F)(F)F)c4)CC3)cc2c1C [Example E25] | > 50 nM
COCCNC(=O)c1ccc2nn(CC3CCN(C(=O)c4cccc(C)c4)CC3)cc2c1C [Example E26, N-(2-methoxyethyl)-4-methyl-2-{[1-(3-methylbenzoyl)piperidin-4-yl]methyl}-2H-indazole-5-carboxamide] | > 50 nM
COCCNC(=O)c1ccc2nn(CC3CCN(C(=O)c4cccc(Cl)c4)CC3)cc2c1C [Example E27, 2-{[1-(3-chlorobenzoyl)piperidin-4-yl]methyl}-N-(2-methoxyethyl)-4-methyl-2H-indazole-5-carboxamide] | > 50 nM
COCCNC(=O)c1ccc2nn(CC3CCN(C(=O)c4ccc(OC5CCCC5)cc4)CC3)cc2c1C [Example E29, 2-({1-[4-(cyclopentyloxy)benzoyl]piperidin-4-yl}methyl)-N-(2-methoxyethyl)-4-methyl-2H-indazole-5-carboxamide] | > 50 nM
COCCNC(=O)c1ccc2nn(CC3CCN(C(=O)c4ccc(C(F)F)cc4)CC3)cc2c1C [Example E30, 2-({1-[4-(difluoromethyl)benzoyl]piperidin-4-yl}methyl)-N-(2-methoxyethyl)-4-methyl-2H-indazole-5-carboxamide] | > 50 nM
COCCNC(=O)c1ccc2nn(CC3CCN(C(=O)c4ccc(C#N)cc4)CC3)cc2c1C [Example E31, 2-{[1-(4-cyanobenzoyl)piperidin-4-yl]methyl}-N-(2-methoxyethyl)-4-methyl-2H-indazole-5-carboxamide] | > 50 nM

Further lines, results first:

IC50 | Compound
> 50 nM | COCCNC(=O)c1ccc2nn(CC3CCN(C(=O)c4ccc(Oc5ccc(F)cc5)cc4)CC3)cc2c1C [Example E3, 2-({1-[4-(4-fluorophenoxy)benzoyl]piperidin-4-yl}methyl)-N-(2-methoxyethyl)-4-methyl-2H-indazole-5-carboxamide]
> 50 nM | COCCNC(=O)c1ccc2nn(CC3CCN(C(=O)c4ccc(-c5ccc(F)cc5)cc4)CC3)cc2c1C [Example E5, 2-({1-[(4′-fluorobiphenyl-4-yl)carbonyl]piperidin-4-yl}methyl)-N-(2-methoxyethyl)-4-methyl-2H-indazole-5-carboxamide]
> 50 nM | COCCNC(=O)c1ccc2nn(CC3CCN(C(=O)c4ccc(OC)cc4F)CC3)cc2c1C [Example E7, 2-{[1-(2-fluoro-4-methoxybenzoyl)piperidin-4-yl]methyl}-N-(2-methoxyethyl)-4-methyl-2H-indazole-5-carboxamide]
> 50 nM | COCCNC(=O)c1ccc2nn(CC3CCN(C(=O)c4ccc(Br)cc4F)CC3)cc2c1C [Example E8, 2-{[1-(4-bromo-2-fluorobenzoyl)piperidin-4-yl]methyl}-N-(2-methoxyethyl)-4-methyl-2H-indazole-5-carboxamide]
> 50 nM | COCCNC(=O)c1ccc2nn(CC3CCN(C(=O)c4ccc(C)cc4F)CC3)cc2c1C [Example E9, 2-{[1-(2-fluoro-4-methylbenzoyl)piperidin-4-yl]methyl}-N-(2-methoxyethyl)-4-methyl-2H-indazole-5-carboxamide]
> 50 nM | COCCNC(=O)c1ccc2nn(CC3CCN(C(=O)c4ccc(C(F)(F)F)cc4F)CC3)cc2c1C [Example E10, 2-({1-[2-fluoro-4-(trifluoromethyl)benzoyl]piperidin-4-yl}methyl)-N-(2-methoxyethyl)-4-methyl-2H-indazole-5-carboxamide]
> 50 nM | COCCNC(=O)c1ccc2nn(CC3CCN(C(=O)c4ccc(S(F)(F)(F)(F)F)cc4)CC3)cc2c1C [Example E11, N-(2-methoxyethyl)-4-methyl-2-({1-[4-(pentafluoro-λ^6-sulphanyl)benzoyl]piperidin-4-yl}methyl)-2H-indazole-5-carboxamide]
> 50 nM | COCCNC(=O)c1ccc2nn(CC3CCN(C(=O)c4ccc(C)cc4)CC3)cc2c1C [Example E12, N-(2-methoxyethyl)-4-methyl-2-{[1-(4-methylbenzoyl)piperidin-4-yl]methyl}-2H-indazole-5-carboxamide]
